Patent US20240335431A1, “1-H-PYRROLO[2,3-c]PYRIDINE COMPOUNDS” (Acerta Pharma B.V., priority 2023, published 2024)
Like-named read-outs stand apart in the source and are kept apart here.

Assays:
[1] = test system: OCI-AML3 cells; assay: Proliferation assay, OCI-AML3 (CellTiter-Glo, 7 days); format: cell-based, human
Summary of the method: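 Cells were seeded at line-specific low densities for linear growth, exposed to 3.16-fold serial compound dilutions at 0.1% DMSO, and incubated 7 days at 37 °C, 5% CO2. Viability was read by CellTiter-Glo 2.0 luminescence; IC50 came from one-site fits of % inhibition, normalized between DMSO-treated cells (100%) and a day-0 plate (0%).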

[2] = target: hERG (Homo sapiens (Human), UniProt Q12809); assay: hERG assay 1 (standard), SyncroPatch 384PE; format: cell-based; conditions: CHO cells, room temperature, up to 40 uM
hERG, sequence (Q12809 whole entry): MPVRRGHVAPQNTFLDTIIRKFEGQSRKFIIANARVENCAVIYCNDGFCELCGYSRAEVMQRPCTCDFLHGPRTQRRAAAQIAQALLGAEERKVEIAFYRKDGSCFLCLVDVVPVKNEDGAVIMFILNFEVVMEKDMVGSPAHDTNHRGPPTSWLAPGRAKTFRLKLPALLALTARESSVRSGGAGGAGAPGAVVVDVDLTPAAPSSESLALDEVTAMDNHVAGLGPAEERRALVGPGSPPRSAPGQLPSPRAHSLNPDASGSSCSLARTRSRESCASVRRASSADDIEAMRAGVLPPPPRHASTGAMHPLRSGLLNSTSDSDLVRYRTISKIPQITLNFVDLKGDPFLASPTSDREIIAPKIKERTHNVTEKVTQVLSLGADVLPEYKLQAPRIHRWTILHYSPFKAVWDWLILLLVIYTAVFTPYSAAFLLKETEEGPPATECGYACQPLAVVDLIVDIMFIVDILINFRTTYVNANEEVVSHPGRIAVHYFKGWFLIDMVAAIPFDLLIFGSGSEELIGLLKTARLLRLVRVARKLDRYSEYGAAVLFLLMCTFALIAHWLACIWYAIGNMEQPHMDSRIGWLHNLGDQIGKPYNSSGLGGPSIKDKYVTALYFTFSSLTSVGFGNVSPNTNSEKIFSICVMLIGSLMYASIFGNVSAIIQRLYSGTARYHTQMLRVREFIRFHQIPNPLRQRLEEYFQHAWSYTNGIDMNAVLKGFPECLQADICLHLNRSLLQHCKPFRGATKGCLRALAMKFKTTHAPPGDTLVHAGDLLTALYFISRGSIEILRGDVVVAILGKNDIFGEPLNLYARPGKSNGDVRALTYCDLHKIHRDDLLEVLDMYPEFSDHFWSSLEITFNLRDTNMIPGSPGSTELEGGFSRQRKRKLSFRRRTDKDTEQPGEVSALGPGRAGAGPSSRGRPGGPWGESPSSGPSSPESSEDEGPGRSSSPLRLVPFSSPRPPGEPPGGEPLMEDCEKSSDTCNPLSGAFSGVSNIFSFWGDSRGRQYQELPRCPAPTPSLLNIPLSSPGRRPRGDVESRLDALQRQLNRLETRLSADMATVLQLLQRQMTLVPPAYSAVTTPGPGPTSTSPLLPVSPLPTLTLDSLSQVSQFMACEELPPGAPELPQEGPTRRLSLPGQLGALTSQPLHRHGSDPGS
Summary of the method: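 Automated patch clamp on hERG-expressing CHO-K1 cells at room temperature, +60/−40 mV protocol every 15 s. Six-point cumulative concentrations 139 nM to 40 uM (0.33% DMSO final); IC50 from one-site fit of % inhibition. Wells required ≥30 MegaOhm seal, current >0.2 nA, Z prime >0.4.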

[3] = Human liver microsomes (HLMs) intrinsic clearance assay; format: in vitro ADME
[4] = human, microsomes, pH 7.4, HLM CLint
[5] = human, microsomes, pH 7.4, 1 mg/mL HLM, NADPH, read-out: HLM CLint
[6] = human, microsomes, 1 µM, pH 7.4

IC50 ([1]; Homo sapiens, OCI-AML-3, 168 h) [nM] | microsomal CLint at 1 µM [3, 4] [µL/min/mg] | HLM CLint [3, 6] [µL/min/mg] | SMILES | IC50 [2] [nM] | microsomal CLint at 1 µM [3, 5] [µL/min/mg] | IC50 [1] [nM] | HLM CLint ([3]; 1 mg/mL HLM, NADPH) [µL/min/mg]
34 | 46 |  | CC(C)N(C(=O)c1cc(F)ccc1-n1cc(C(=O)C2CCN(C(=O)[C@@H]3CCC(C)(C)N3)CC2)c2ccncc21)C(C)C [Example 27, (S)-2-(3-(1-(5,5-Dimethylpyrrolidine-2-carbonyl)piperidine-4-carbonyl)-1H-pyrrolo[2,3-c]pyridin-1-yl)-5-fluoro-N,N-diisopropylbenzamide] | > 40000 |  |  | 
313 | 178 |  | CC(C)N(C(=O)c1cc(F)ccc1-n1cc(C(=O)[C@H]2CCN(C[C@H]3CC[C@H](NS(C)(=O)=O)CC3)C2)c2ccncc21)C(C)C [Example 1, 5-Fluoro-N,N-diisopropyl-2-(3-((S)-1-(((1r,4S)-4-(methylsulfonamido)-cyclohexyl)methyl)pyrrolidine-3-carbonyl)-1H-pyrrolo[2,3-c]pyridin-1-yl)benzamide] | 9900 |  |  | 
223 | 171 |  | CC(C)N(C(=O)c1cc(F)ccc1-n1cc(C(=O)[C@@H]2CCN(C[C@H]3CC[C@H](NS(C)(=O)=O)CC3)C2)c2ccncc21)C(C)C [Example 4, 5-Fluoro-N,N-diisopropyl-2-(3-((R)-1-(((1r,4R)-4-(methylsulfonamido)-cyclohexyl)methyl)pyrrolidine-3-carbonyl)-1H-pyrrolo[2,3-c]pyridin-1-yl)benzamide] | 6300 |  |  | 
29 |  | 194 | Cc1c(C(=O)C2CCN(C(=O)[C@H]3NC[C@@H]4C[C@@H]43)CC2)c2ccncc2n1-c1ccc(F)cc1C(=O)N(C(C)C)C(C)C (single isomer, unassigned) [Example 55-2] | > 40000 |  |  | 
313 | 88 |  | Cc1c(C(=O)[C@@H]2CCN(C(=O)[C@@H]3CC[C@@H](C)N3)[C@@H](C)C2)c2ccncc2n1-c1ccc(F)cc1C(=O)N(C(C)C)C(C)C (stereo in doubt) [Example 64, 5-Fluoro-N,N-diisopropyl-2-(2-methyl-3-((2S,4RS)-2-methyl-1-((2S,5R)-5-methylpyrrolidine-2-carbonyl)piperidine-4-carbonyl)-1H-pyrrolo[2,3-c]pyridin-1-yl)benzamide] | 32700 |  |  | 
225 | 27 |  | CCN(C(=O)c1cc(F)ccc1-n1cc(C(=O)C2CN(C(=O)[C@H]3NC4CCC3CC4)C2)c2ccncc21)C(C)C [Example 9, (S)-2-(3-(1-(2-Azabicyclo[2.2.2]octane-3-carbonyl)azetidine-3-carbonyl)-1H-pyrrolo[2,3-c]pyridin-1-yl)-N-ethyl-5-fluoro-N-isopropylbenzamide] |  |  |  | 
 |  |  | CCN(C(=O)c1cc(F)ccc1-n1c(C)c(C(=O)[C@@H]2CCN(C(=O)[C@@H]3CCC4(CC4)N3)[C@@H](C)C2)c2ccncc21)C(C)C (single isomer, unassigned) [Example 52-1, N-Ethyl-5-fluoro-N-isopropyl-2-(2-methyl-3-((2R*,4S*)-2-methyl-1-((S)-4-azaspiro[2.4]heptane-5-carbonyl)piperidine-4-carbonyl)-1H-pyrrolo[2,3-c]pyridin-1-yl)benzamide] |  | 150 | 40 | 
193 | 21 |  | CCN(C(=O)c1cc(F)ccc1-n1cc(C(=O)C2CN(C(=O)[C@H]3N[C@@H]4CC[C@H]3C4)C2)c2ccncc21)C(C)C [Example 8, 2-(3-(1-((1R,3S,4S)-2-Azabicyclo[2.2.1]heptane-3-carbonyl)azetidine-3-carbonyl)-1H-pyrrolo[2,3-c]pyridin-1-yl)-N-ethyl-5-fluoro-N-isopropylbenzamide] | > 40000 |  |  | 
 |  |  | CCN(C(=O)c1cc(F)ccc1-n1c(C)c(C(=O)[C@@H]2CCN(C(=O)[C@@H]3CCC4(CC4)N3)[C@@H](C)C2)c2ccncc21)C(C)C (single isomer, unassigned) [Example 52-2, N-Ethyl-5-fluoro-N-isopropyl-2-(2-methyl-3-((2R*,4S*)-2-methyl-1-((S)-4-azaspiro[2.4]heptane-5-carbonyl)piperidine-4-carbonyl)-1H-pyrrolo[2,3-c]pyridin-1-yl)benzamide] | 14200 |  | 82 | 150
37 | 119 |  | CC(C)(F)c1ncccc1-c1cc(F)ccc1-n1cc(C(=O)C2CN(C(=O)[C@H]3N[C@@H]4CC[C@H]3C4)C2)c2ccncc21 [Example 13, (1-((1R,3S,4S)-2-Azabicyclo[2.2.1]heptane-3-carbonyl)azetidin-3-yl)(1-(4-fluoro-2-(2-(2-fluoropropan-2-yl)pyridin-3-yl)phenyl)-1H-pyrrolo[2,3-c]pyridin-3-yl)methanone] | 35800 |  |  | 
126 | 43 |  | CC(C)N(C(=O)c1cc(F)ccc1-n1cc(C(=O)[C@H]2CCN(C(=O)[C@H]3N[C@@H]4CC[C@H]3C4)C2)c2ccncc21)C(C)C [Example 2, 2-(3-((S)-1-((1R,3S,4S)-2-Azabicyclo[2.2.1]heptane-3-carbonyl)pyrrolidine-3-carbonyl)-1H-pyrrolo[2,3-c]pyridin-1-yl)-5-fluoro-N,N-diisopropylbenzamide] | > 40000 |  |  | 
51 | 27 |  | CC(C)N(C(=O)c1cc(F)ccc1-n1cc(C(=O)C2CCN(C(=O)[C@H]3N[C@@H]4CC[C@H]3C4)CC2)c2ccncc21)C(C)C [Example 16, 2-(3-(1-((1R,3S,4S)-2-Azabicyclo[2.2.1]heptane-3-carbonyl)piperidine-4-carbonyl)-1H-pyrrolo[2,3-c]pyridin-1-yl)-5-fluoro-N,N-diisopropylbenzamide] | > 40000 |  |  | 
63 |  | 48 | CCN(C(=O)c1cc(F)ccc1-n1c(C)c(C(=O)C2CCN(C(=O)[C@@H]3CCC(C)(C)N3)CC2)c2ccncc21)C(C)C (single isomer, unassigned) [Example 50-2] | > 40000 |  |  | 
356 | 52 |  | CC(C)N(C(=O)c1cc(F)ccc1-n1cc(C(=O)C2CCN(C[C@H]3CC[C@H](NS(C)(=O)=O)CC3)CC2)c2ccncc21)C(C)C [Example 17, 5-Fluoro-N,N-diisopropyl-2-(3-(1-(((1r,4r)-4-(methylsulfonamido)cyclohexyl)-methyl)piperidine-4-carbonyl)-1H-pyrrolo[2,3-c]pyridin-1-yl)benzamide] | 9100 |  |  | 
59 | 54 |  | CCN(C(=O)c1cc(F)ccc1-n1cc(C(=O)C2CCN(C(=O)[C@H]3N[C@H]4C[C@@H]3[C@@H](F)C4)CC2)c2ccncc21)C(C)C [Example 30, N-Ethyl-5-fluoro-2-(3-(1-((1S,3S,4S,5S)-5-fluoro-2-azabicyclo[2.2.1]heptane-3-carbonyl)piperidine-4-carbonyl)-1H-pyrrolo[2,3-c]pyridin-1-yl)-N-isopropylbenzamide] | > 40000 |  |  | 
24 | 182 |  | CC(C)c1ncccc1-c1cc(F)ccc1-n1cc(C(=O)C2CN(C(=O)[C@H]3N[C@@H]4CC[C@H]3C4)C2)c2ccncc21 [Example 10, (1-((1R,3S,4S)-2-Azabicyclo[2.2.1]heptane-3-carbonyl)azetidin-3-yl)(1-(4-fluoro-2-(2-isopropylpyridin-3-yl)phenyl)-1H-pyrrolo[2,3-c]pyridin-3-yl)methanone] | > 40000 |  |  | 
51 | > 294 |  | CC(C)c1cnccc1-c1cc(F)ccc1-n1cc(C(=O)C2CN(C(=O)[C@H]3N[C@@H]4CC[C@H]3C4)C2)c2ccncc21.O=CO [Example 11, (1-((1R,3S,4S)-2-Azabicyclo[2.2.1]heptane-3-carbonyl)azetidin-3-yl)(1-(4-fluoro-2-(3-isopropylpyridin-4-yl)phenyl)-1H-pyrrolo[2,3-c]pyridin-3-yl)methanone 1·formic acid] | > 40000 |  |  | 

SMILES | IC50 ([1]; Homo sapiens, OCI-AML-3, 168 h) [nM] | microsomal CLint at 1 µM [3, 4] [µL/min/mg] | HLM CLint [3, 6] [µL/min/mg] | IC50 [2] [nM] | microsomal CLint at 1 µM [3, 5] [µL/min/mg] | IC50 [1] [nM] | HLM CLint ([3]; 1 mg/mL HLM, NADPH) [µL/min/mg]
CC(C)N(C(=O)c1cc(F)ccc1-n1cc(C(=O)C2CCN(C(=O)[C@@H]3CCC4(CC4)N3)CC2)c2ccncc21)C(C)C [Example 24, (S)-2-(3-(1-(4-Azaspiro[2.4]heptane-5-carbonyl)piperidine-4-carbonyl)-1H-pyrrolo[2,3-c]pyridin-1-yl)-5-fluoro-N,N-diisopropylbenzamide] | 21 |  |  | 38300 | 145 |  | 
Cc1c(C(=O)C2CCN(C(=O)[C@@H]3CCC(C)(C)N3)CC2)c2ccncc2n1-c1ccc(F)cc1C(=O)N(C(C)C)C(C)C (single isomer, unassigned) [Compound 56-2] | 47 |  | 91 | > 40000 |  |  | 
CC(C)N(C(=O)c1cc(F)ccc1-n1cc(C(=O)C2CCN(C(=O)[C@@H]3CC4(CC4)CN3)CC2)c2ccncc21)C(C)C [Example 26, (S)-2-(3-(1-(5-Azaspiro[2.4]heptane-6-carbonyl)piperidine-4-carbonyl)-1H-pyrrolo[2,3-c]pyridin-1-yl)-5-fluoro-N,N-diisopropylbenzamide] | 140 |  |  | > 40000 | 51 |  | 
CCN(C(=O)c1cc(F)ccc1-n1c(C)c(C(=O)C2CCN(C(=O)[C@@H]3CCC4(CC4)N3)CC2)c2ccncc21)C(C)C (single isomer, unassigned) [Example 49-2] | > 233 |  |  | > 38000 |  |  | 127
